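Protocol summary: plate cells (96-well), add compound at 5 concentrations, incubate 48 h, interpolate endpoints linearly. GI50 = concentration required for 50% inhibition of growth. TGI is the concentration that stops growth completely.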
Experiments:
Experiment in all cases: NCI tumour cell line growth inhibition, 48 h
ACHN renal = system: ACHN renal
CAKI-1 renal = system: CAKI-1 renal
HCT-116 colon = system: HCT-116 colon
HT29 colon = system: HT29 colon
MDA-MB-435 = system: MDA-MB-435
MOLT-4 leukemia = system: MOLT-4 leukemia
RPMI-8226 leukemia = system: RPMI-8226 leukemia
SF-539 CNS = system: SF-539 CNS
SK-MEL-28 melanoma = system: SK-MEL-28 melanoma
TK-10 renal = system: TK-10 renal

SMILES	TGI (ACHN renal) [µM]	TGI (CAKI-1 renal) [µM]	TGI (HCT-116 colon) [µM]	TGI (HT29 colon) [µM]	TGI (MDA-MB-435) [µM]	TGI (MOLT-4 leukemia) [µM]	TGI (RPMI-8226 leukemia) [µM]	TGI (SF-539 CNS) [µM]	TGI (SK-MEL-28 melanoma) [µM]	TGI (TK-10 renal) [µM]	GI50 (ACHN renal) [µM]	GI50 (CAKI-1 renal) [µM]	GI50 (HCT-116 colon) [µM]	GI50 (HT29 colon) [µM]	GI50 (MDA-MB-435) [µM]	GI50 (MOLT-4 leukemia) [µM]	GI50 (RPMI-8226 leukemia) [µM]	GI50 (SF-539 CNS) [µM]	GI50 (SK-MEL-28 melanoma) [µM]	GI50 (TK-10 renal) [µM]
Cc1c(-c2cnccn2)ssc1=S	> 100	> 100	> 100	> 100	> 100	> 100	> 100	> 100	> 100	98.7	–	–	–	–	–	–	–	–	–	–
COc1c/c(=C2\C=c3ccccc3=N2)[nH]/c1=C\c1[nH]c(C)cc1C	2.33	0.109	1.71	> 100	0.0951	–	2.9	4.19	26.3	36.7	< 0.0224	< 0.0103	< 0.0368	< 0.01	0.0136	< 0.0203	< 0.0151	0.0466	0.103	0.106
COc1cc2c(cc1OC(C)C)[C@H](c1ccc(Cl)cc1)N(c1ccc(N(C)CC3CCC(N4CCN(C)C(=O)C4)CC3)cc1)C(=O)C2 (some centres undefined)	3.62	4.99	2.48	7.79	6.93	5.77	4.76	3.21	4.29	9.34	0.32	0.345	0.447	2.7	2.47	0.363	2.13	1.64	2	3.63
CNC(=O)c1ccc(N2C(=S)N(c3cnc(C#N)c(C(F)(F)F)c3)C(=O)C23CCC3)cc1F	> 100	> 100	> 100	> 100	> 100	> 100	> 100	> 100	> 100	> 100	> 100	> 100	> 95.4	> 100	> 100	61.9	59.3	> 100	> 100	> 100
CCc1nc(N)nc(N)c1-c1ccc(Cl)c([N+](=O)[O-])c1	> 100	> 100	> 100	> 100	> 100	> 65.2	> 83.9	51.4	> 100	> 100	–	–	–	–	–	–	–	–	–	–
O=C(O)CCNCC(=O)O	> 100	> 100	> 100	> 100	> 100	> 100	> 100	> 100	> 100	> 100	–	–	–	–	–	–	–	–	–	–
Cc1cc2c(C(=O)NC[C@H](C)c3ccccc3)c(O)c(O)cc2c(O)c1-c1c(C)cc2c(C(=O)NC[C@H](C)c3ccccc3)c(O)c(O)cc2c1O	3.83	10	9.59	11	4.79	7.8	5.41	1.02	4.41	10.6	0.296	0.375	0.0346	0.355	0.232	0.199	0.185	0.242	0.437	0.298
CCc1ccc(Oc2c(-c3ccc(OCc4ccc(Cl)cc4)cc3O)n[nH]c2C(F)(F)F)cc1	4	5.95	3.19	3.95	3.49	5.64	5.25	4.41	3.37	4.75	1.89	2.29	1.67	2	1.8	2.46	2.33	1.96	1.82	2
CC(=O)O[C@@H]1C2CCC3C(CC[C@@]4(C)C3CC[C@@H]4C(C)N(C)C)[C@@]2(C)CC[C@@H]1NC(=O)C=C(C)C (some centres undefined)	12.8	11.3	3.49	1.97	4.26	5.69	5.53	2.71	3.27	17.4	3.56	3.4	1.54	0.552	1.92	2.33	1.96	1.34	1.73	5.21

Source: PubChem BioAssay (NCI)
